Test results: patent publication US20240425491A1, “HETEROARYL COMPOUNDS USEFUL IN THE TREATMENT OF COGNITIVE DISORDERS” (University College Cardiff Consultants Limited, priority 2021, published 2024)

What was measured:
[1] = molecular target: T1, human recombinant GABAAR containing α5β3γ2 subunits (benzodiazepine site) (Homo sapiens, UniProt P18507+P31644); test: In vitro radioligand binding assay (α5-GABAAR Ki); conditions: inhibition of [3H]Ro15-1788 binding, membranes of L(tk−) cells expressing human α5β3γ2; read-out: α5-GABAAR Ki
T1 construct: expressed in transfected cells; host or cells: mouse L(tk−) cells, dexamethasone-inducible vector pMSGneo
How it was run: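 Displacement of 4 nM [^3H]flumazenil from the benzodiazepine site, read by filtration and scintillation, gave IC50, converted to Ki (Cheng-Prusoff, saturation-derived Kd). Receptor: human α5β3γ2 membranes from L(tk^−) cells, 50 μg protein/well; 1 h, 4° C; TP003 1 μM defined nonspecific binding.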

[2] = molecular target: T2, human α5β3γ2L GABAA receptors in HEK293 cells (Homo sapiens, UniProt P18507+P31644); test: In vitro electrophysiological recording assay (α5-GABAAR relative efficacy), SyncroPatch; type: cell-based; conditions: Conc 0.1 μM; GABA EC10-20
T2 construct: expressed in transfected cells
Description: Mouse L(tk^−) cells stably expressing human α1β3γ2, α2β3γ2, α3β3γ2, α5β3γ2 GABAARs generated by transfection of the individual subunits in the dexamethasone-inducible expression vector pMSGneo in mouse L(tk^−) cells (Hadingham et al., 1993, Mol. Pharmacol. 43:970-975 and 1993, Mol. Pharmacol. 44:1211-1218) were used for binding and functional assays. For certain compounds, HEK293 cells stable expressing the human α1β3γ2L, α2β3γ2L, α3β3γ2L and α5β3γ2L GABAA receptors were used to evaluate their functional effects in a SyncroPatch electrophysiology assay.
The efficacy of modulators was evaluated using either the automated patch-clamp platform QPatch16 (Sophion, Copenhagen, Denmark) or the SyncroPatch 384i (Nanion Technologies, Germany). Cells were harvested from flasks by enzymatic dissociation and re-suspended in serum-free medium.
For the Syncropatch recordings, a stacked addition protocol was used, in which GABA was rapidly applied and then washed off from the cell. All experiments were carried out at room temperature (20-22° C.) using a standard whole cell procedure. The currents recorded were acquired at 2 kHz and filtered using a Bessel filter. Whole-cell currents were measured at a holding potential of −80 mV.
For Syncropatch recordings, the extracellular recording solution contained: 140 mM NaCl, 4 mM KCl, 2 mM CaCl2), 1 mM MgCl2, 10 mM HEPES, 5 mM glucose (pH 7.4 and osmolarity of c. 300-310 mOsm/L). The intracellular recording solution contained: 90 mM KCl, 50 mM KF, 1.5 mM MgCl2, 11.1 mM EGTA and 10 mM HEPES (pH 7.2 and osmolarity of c. 300 mOsm/L). 2 mM of NaATP was added to the intracellular solution on the day of testing.
The effects of modulators were evaluated in the presence of a submaximal GABA concentration, giving typically 10-20% activation (GABA EC10-20) of the response elicited by a saturating GABA concentration. For QPatch recordings, to check and ensure baseline current stability before compound addition, five consecutive applications of GABA EC10-20 alone (each application with a 2 s duration, separated by minimum 1 min wash off periods) were performed before compound addition. The test compound was applied using the pipetting system of the QPatch system 1 min at least prior to co-application with GABA EC10-20. For SyncroPatch recordings, GABA EC20 alone was applied three times (1 s long applications, with wash steps in-between) before compound addition. This was followed by a 1-2 min pre-incubation with the test compound and then re-application of GABA EC10-20 in the presence of the compound. Finally, following a further wash step, a saturating concentration of GABA was applied, allowing the accurate evaluation for each cell of the percentage baseline activation elicited by the submaximal GABA applied.
The compounds were first dissolved in DMSO as a 10 mM stock and then further diluted to the testing concentrations so that the final DMSO concentration in the extracellular recording solution was kept constant at 0.1% for the QPatch recordings, or 0.2% for the SyncroPatch recordings.
The % efficacy of modulators was determined from the GABA elicited currents recorded in the presence and absence of the test compound, using the formula:
[((compound peak current−leak)−(GABA peak current−leak))/(GABA peak current−leak)]*100,
where ‘leak’ is the leak baseline current at −65 mV, ‘compound peak current’ is the current elicited by co-application of compound and GABA, and ‘GABA peak current’ is the current elicited by GABA alone during the 5th GABA application. The results were presented as ‘relative efficacy’ for each compound generally at a concentration equal or higher than 100 times their determined Ki. The relative efficacy of a compound was calculated by normalising its efficacy to the efficacy of methyl-6,7-dimethoxy-4-ethyl-beta-carboline-3-carboxylate (DMCM) that was separately determined produced an attenuation of GABA-induced currents of −57±4%, n=5.

[3] = molecular target: T3, human α5β3γ2 GABAARs in mouse L(tk−) cells (Homo sapiens, UniProt P18507+P31644); test: In vitro electrophysiological recording assay (α5-GABAAR relative efficacy), QPatch; type: cell-based; conditions: GABA EC10-20
T3 construct: expressed in transfected cells; host or cells: mouse L(tk−) cells, dexamethasone-inducible vector pMSGneo
How it was run: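 Whole-cell QPatch recordings at 20-22° C, −65 mV holding, in dexamethasone-induced (1 μM, 24 h) L(tk−) cells. Compound pre-applied ≥1 min, then co-applied with GABA EC10-20; percentage change in leak-corrected peak current, taken at ≥100× Ki, normalised to DMCM efficacy; 0.1% DMSO final.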

T3 sequence (P31644 32-462): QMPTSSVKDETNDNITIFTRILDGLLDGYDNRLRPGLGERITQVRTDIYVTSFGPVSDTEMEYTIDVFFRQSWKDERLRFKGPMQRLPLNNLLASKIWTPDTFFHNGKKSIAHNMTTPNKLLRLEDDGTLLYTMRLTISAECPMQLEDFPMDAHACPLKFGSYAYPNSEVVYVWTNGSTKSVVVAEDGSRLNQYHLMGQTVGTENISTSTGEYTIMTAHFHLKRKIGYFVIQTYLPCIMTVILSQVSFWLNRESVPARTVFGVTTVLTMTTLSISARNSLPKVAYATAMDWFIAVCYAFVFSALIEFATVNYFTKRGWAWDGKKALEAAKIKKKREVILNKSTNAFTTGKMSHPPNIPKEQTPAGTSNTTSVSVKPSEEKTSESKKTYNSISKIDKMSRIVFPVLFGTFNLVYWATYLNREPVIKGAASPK
T3 sequence (P28472 26-473 partner): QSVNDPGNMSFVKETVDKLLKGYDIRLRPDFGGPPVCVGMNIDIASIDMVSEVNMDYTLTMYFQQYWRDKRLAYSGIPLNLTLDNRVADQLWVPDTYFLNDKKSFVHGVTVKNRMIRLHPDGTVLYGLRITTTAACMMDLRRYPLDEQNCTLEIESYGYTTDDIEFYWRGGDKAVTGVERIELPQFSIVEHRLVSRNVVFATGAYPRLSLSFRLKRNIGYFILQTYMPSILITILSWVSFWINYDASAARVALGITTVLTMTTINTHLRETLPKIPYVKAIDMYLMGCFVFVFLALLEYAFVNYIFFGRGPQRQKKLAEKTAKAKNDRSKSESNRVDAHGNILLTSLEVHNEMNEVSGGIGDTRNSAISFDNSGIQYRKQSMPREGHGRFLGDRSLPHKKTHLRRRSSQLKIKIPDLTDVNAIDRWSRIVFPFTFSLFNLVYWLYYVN
T3 sequence (P18507 40-475): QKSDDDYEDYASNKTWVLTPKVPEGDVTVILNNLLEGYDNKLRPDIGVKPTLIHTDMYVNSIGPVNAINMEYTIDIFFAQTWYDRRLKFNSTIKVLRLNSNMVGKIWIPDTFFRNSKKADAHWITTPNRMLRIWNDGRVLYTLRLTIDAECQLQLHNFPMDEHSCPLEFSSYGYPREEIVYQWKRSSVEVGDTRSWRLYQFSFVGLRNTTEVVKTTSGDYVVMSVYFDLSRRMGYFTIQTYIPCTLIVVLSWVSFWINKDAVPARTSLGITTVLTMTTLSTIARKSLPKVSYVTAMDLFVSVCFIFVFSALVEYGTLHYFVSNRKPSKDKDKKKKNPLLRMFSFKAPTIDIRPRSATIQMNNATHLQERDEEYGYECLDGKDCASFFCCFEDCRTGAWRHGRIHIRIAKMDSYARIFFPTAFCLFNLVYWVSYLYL
T1 sequence (P31644 32-462): as the sequence (P31644 32-462) above
T1 sequence (P28472 26-473 partner): as the sequence (P28472 26-473 partner) above
T1 sequence (P18507 40-475): as the sequence (P18507 40-475) above
T2 sequence (P31644 32-462): as the sequence (P31644 32-462) above
T2 sequence (P28472 26-473 partner): as the sequence (P28472 26-473 partner) above
T2 sequence (P18507 40-475): as the sequence (P18507 40-475) above

| SMILES | Ki [1] [nM] | α5-GABAAR Relative Efficacy (to DMCM), SyncroPatch [2] | α5-GABAAR Relative Efficacy (to DMCM), Qpatch ([3]; Conc 1 μM) | α5-GABAAR Relative Efficacy (to DMCM), Qpatch ([3]; Conc 3 μM) | α5-GABAAR Relative Efficacy (to DMCM), Qpatch ([3]; Conc 0.1 μM) | α5-GABAAR Relative Efficacy (to DMCM), Qpatch ([3]; Conc 0.3 μM) |
| --- | --- | --- | --- | --- | --- | --- |
| COc1nc(-c2cnc(N)cn2)ccc1NC(=O)c1c(-c2ccccc2)noc1C.Cl [Example 55, N-[6-(5-Aminopyrazin-2-yl)-2-methoxy-3-pyridyl]-5-methyl-3-phenyl-isoxazole-4-carboxamide hydrochloride] | 3.4 | −0.93 | −0.92 |  |  |  |
| COc1nc(-n2ccnc2)ccc1NC(=O)c1c(-c2ccc(F)cc2)noc1C [Example 141, 3-(4-Fluorophenyl)-N-(6-imidazol-1-yl-2-methoxy-3-pyridyl)-5-methyl-isoxazole-4-carboxamide] | 1.9 | −1.13 |  |  |  | −0.93 |
| COc1nc(-c2ccc(N)nn2)ccc1NC(=O)c1c(-c2ccccc2)noc1C [Example 127, N-[6-(6-Aminopyridazin-3-yl)-2-methoxy-3-pyridyl]-5-methyl-3-phenyl-isoxazole-4-carboxamide] | 21.8 | −0.57 |  | −0.72 |  |  |
| COc1nc(-c2cnc(C(N)=O)nc2)ccc1NC(=O)c1c(-c2ccccc2)noc1C [Example 129, N-[6-(2-Carbamoylpyrimidin-5-yl)-2-methoxy-3-pyridyl]-5-methyl-3-phenyl-isoxazole-4-carboxamide] | 0.8 | −0.72 |  |  | −0.77 |  |
| COc1nc(-c2ccc(CN)nc2)ccc1NC(=O)c1c(-c2ccccc2)noc1C.Cl [Example 199, N-[6-[6-(Aminomethyl)-3-pyridyl]-2-methoxy-3-pyridyl]-5-methyl-3-phenyl-isoxazole-4-carboxamide hydrochloride] | 1.6 | −0.93 |  |  |  | −0.82 |
| Cc1onc(-c2ccc(F)cc2)c1C(=O)Nc1ccc(-c2cnc3n2CCNC3)nc1OC(C)C.Cl [Example 208, 3-(4-Fluorophenyl)-N-(2-isopropoxy-6-(5,6,7,8-tetrahydroimidazo[1,2-a]pyrazin-3-yl)pyridin-3-yl)-5-methylisoxazole-4-carboxamide hydrochloride] | 0.7 | −0.70 |  |  | −0.38 |  |
| COc1nc(-c2cnc(CN)nc2)ccc1NC(=O)c1c(-c2ccccc2)noc1C.Cl [Example 126, N-[6-[2-(Aminomethyl)pyrimidin-5-yl]-2-methoxy-3-pyridyl]-5-methyl-3-phenyl-isoxazole-4-carboxamide hydrochloride] | 1.1 | −0.55 |  |  |  | −0.68 |
| COc1nc(-c2ccc(N)nc2)ccc1NC(=O)c1c(-c2ccccc2)noc1C [Example 89, N-(6′-Amino-6-methoxy-[2,3′-bipyridin]-5-yl)-5-methyl-3-phenylisoxazole-4-carboxamide] | 3.1 | −0.62 | −0.64 |  |  |  |
| COc1nc(-c2cnn(C)c2)ccc1NC(=O)c1c(-c2ccccc2)noc1C [Example 4, N-[2-Methoxy-6-(1-methylpyrazol-4-yl)-3-pyridyl]-5-methyl-3-phenyl-isoxazole-4-carboxamide] | 29.7 | −0.36 | −0.68 |  |  |  |
| Cc1onc(-c2ccc(F)cc2)c1C(=O)Nc1ccc(-c2cnc3n2CCN(C)C3)nc1OC(C)C.Cl [Example 209, 3-(4-Fluorophenyl)-N-(2-isopropoxy-6-(7-methyl-5,6,7,8-tetrahydroimidazo[1,2-a]pyrazin-3-yl)pyridin-3-yl)-5-methylisoxazole-4-carboxamide hydrochloride] | 0.3 | −0.60 |  |  |  |  |

Now from value to compound, other results behind:

| Ki [1] [nM] | α5-GABAAR Relative Efficacy (to DMCM), SyncroPatch [2] | α5-GABAAR Relative Efficacy (to DMCM), Qpatch ([3]; Conc 1 μM) | α5-GABAAR Relative Efficacy (to DMCM), Qpatch ([3]; Conc 3 μM) | α5-GABAAR Relative Efficacy (to DMCM), Qpatch ([3]; Conc 0.1 μM) | SMILES | α5-GABAAR Relative Efficacy (to DMCM), Qpatch ([3]; Conc 0.3 μM) |
| --- | --- | --- | --- | --- | --- | --- |
| 1.4 | −1.05 |  |  |  | COc1nc(-c2cnc(CN(C)C)nc2)cnc1NC(=O)c1c(-c2ccccc2)noc1C [Example 144, N-[5-[2-[(Dimethylamino)methyl]pyrimidin-5-yl]-3-methoxy-pyrazin-2-yl]-5-methyl-3-phenyl-isoxazole-4-carboxamide] | −0.95 |
| 1.1 | −0.72 |  |  | −0.59 | CNCc1ccc(-c2ccc(NC(=O)c3c(-c4ccccc4)noc3C)c(OC)n2)cn1 [Example 190, N-[2-Methoxy-6-[6-(methylaminomethyl)-3-pyridyl]-3-pyridyl]-5-methyl-3-phenyl-isoxazole-4-carboxamide] |  |
| 1.9 | −1.05 |  |  |  | COc1nc(-c2cnc(CN3CCOCC3)nc2)ccc1NC(=O)c1c(-c2ccccc2)noc1C [Example 181, N-[2-Methoxy-6-[2-(morpholinomethyl)pyrimidin-5-yl]-3-pyridyl]-5-methyl-3-phenyl-isoxazole-4-carboxamide] |  |
| 0.6 | −0.65 |  |  |  | Cc1onc(-c2ccccc2)c1C(=O)Nc1ccc(-c2ccc(N)nc2)nc1OC(C)C [Example 215, N-[6-(6-Amino-3-pyridyl)-2-isopropoxy-3-pyridyl]-5-methyl-3-phenyl-isoxazole-4-carboxamide] |  |
| 1.3 | −0.68 |  |  |  | COc1nc(-c2ccc(CN3CC4COCC(C4)C3)cc2)ccc1NC(=O)c1c(-c2ccccc2)noc1C [Example 228, N-[2-methoxy-6-[4-(3-oxa-7-azabicyclo[3.3.1]nonan-7-ylmethyl)phenyl]-3-pyridyl]-5-methyl-3-phenyl-isoxazole-4-carboxamide] |  |
| 0.5 | −0.78 |  |  |  | COc1nc(-c2ccc(N)nc2)ccc1NC(=O)c1c(-c2ccc(F)cc2)noc1C [Example 222, N-(6′-amino-6-methoxy-[2,3′-bipyridin]-5-yl)-3-(4-fluorophenyl)-5-methylisoxazole-4-carboxamide] |  |
| 6.4 | −0.16 |  |  |  | COCCOc1nc(-c2cnc(N)nc2)ccc1NC(=O)c1c(-c2ccc(F)cc2)noc1C [Example 217, N-[6-(2-Aminopyrimidin-5-yl)-2-(2-methoxyethoxy)-3-pyridyl]-3-(4-fluorophenyl)-5-methyl-isoxazole-4-carboxamide] |  |
| 1.3 | −1.06 |  |  |  | COc1nc(-c2cnc(N)nc2)ncc1NC(=O)c1c(-c2ccccc2)noc1C [Example 223, N-(2′-amino-4-methoxy-[2,5′-bipyrimidin]-5-yl)-5-methyl-3-phenylisoxazole-4-carboxamide] |  |
